According to patent US20250144056A1, “ANTIMICROBIAL HOST DEFENSE PEPTIDE-INDUCING COMPOSITIONS AND METHODS OF PRODUCTION AND USE THEREOF” (Board of Regents for the Oklahoma Agricultural and …, priority 2022, published 2025):
“Also recorded” adds a separate entry of the source.

What was measured:
Format in all cases: cell-based, chicken
[1] = tested on: AvBD9 gene promoter; experiment: HTC/AvBD9-luc luciferase reporter assay; settings: for activation of the AvBD9 gene promoter (relative luciferase activity): compound alone, different concentrations, 24 h (FIG. 2, Panel A); for synergy in luciferase activity with butyrate: different concentrations in combination with 2 mM butyrate, 24 h (FIG. 3)
Procedure: Culture and stimulation of a stable HTC/AvBD9-luc luciferase reporter cell line. A stable HTC/AvBD9-luc cell line was generated by cloning a 2.0-Kb AvBD9 gene promoter fragment into a lentiviral luciferase reporter vector, pGreenFire1-mCMV-Puro (System Biosciences, Palo Alto, CA) and then transfected into HTC cells as previously described (22). The stable cell line was maintained in RPMI 1640 containing 10% heat-inactivated FBS, 100 U/ml penicillin, 100 μg/mL streptomycin, and 0.5 μg/mL puromycin and subcultured every 3-4 days. To measure transcriptional activation of the AvBD9 gene promoter in response to different epigenetic compounds, cells were seeded at 4×10^4 cells/well in white 96-well tissue culture plates and stimulated in duplicate with different compounds individually or in combination for 24 h. An equal amount of a solvent was applied as a negative control. Luciferase activity was measured using STEADY-GLO® Luciferase Assay System (Promega, Madison, WI) on an L-Max II luminescence microplate reader (Molecular Devices, Sunnyvale, CA). Cell viabilities were assessed by adding alamarBlue Reagent (ThermoFisher, Waltham, MA) to cell culture 4 h before luciferase assay. Relative luciferase activity was determined for each well after normalization to the cell viability as previously described (22).

[2] = tested on: AvBD9 mRNA expression; experiment: RT-qPCR of AvBD9 mRNA expression in HTC macrophage cells; settings: for induction of AvBD9 gene expression / increase in AvBD9 expression, combination with mocetinostat: 24 h (FIG. 7, Panel D); for increase in AvBD9 expression, combination with mocetinostat: 5 μM compound in combination with 2.5 μM mocetinostat; for synergy with butyrate in AvBD9 mRNA expression: indicated concentrations in combination with 2 mM butyrate, 24 h (FIG. 4); for synergy in AvBD9 induction between HMTi and HDACi: with butyrate or mocetinostat, 24 h (FIG. 7, Panel C)
Procedure: (§1) Culture and stimulation of macrophages. Two different chicken macrophage cell lines, HTC (24) and HD11 (25), were kindly provided by Dr. Narayan C. Rath and Dr. Hyun Lillehoj of USDA-ARS and maintained in RPMI 1640 containing 10% heat-inactivated FBS, 100 U/ml penicillin, and 100 μg/ml streptomycin and subcultured every 3-4 days. After overnight seeding at 1.5×10^6 cells/well in 6-well cell culture plates, cells were treated with different concentrations of each compound for 24 h or with the indicated concentration of each compound for various lengths of time for dose-response and time-course experiments, respectively. To study the synergy between HMTi/DNMTi and HDACi, different concentrations of an HMTi or DNMTi were added to the cells in the presence or absence of an HDACi for 24 h, followed by RNA isolation and HDP gene expression analysis as described below. HTC cells were also stimulated with butyrate, BIX01294, or their combination for 24 h, followed by 3-h stimulation with 10 ng/ml LPS and subsequent expression analysis.
(§2) Total RNA extraction and gene expression analysis. Total RNA was extracted using RNAzol (Molecular Biology Research Center, Cincinnati, OH) according to the manufacturer's protocol. Gene expression was performed using reverse transcription-quantitative PCR (RT-qPCR) as previously described (27-29). Reverse transcription was performed with 300 ng of total RNA and Maxima® First Strand cDNA Synthesis Kit (ThermoFisher Scientific, Pittsburgh, PA). The cDNA was then diluted 10-fold with RNase-free water prior to real-time PCR using QuantiTect SYBR® Green PCR Kit (Qiagen, Valencia, CA) in 10-μl reactions using primers specific for HDP, barrier function, and inflammatory cytokine genes as described (27, 29, 30). PCR was run in CFX Connect Real-Time PCR System (Bio-Rad, Hercules, CA) using the following program: 95° C. for 10 min, followed by 40 cycles of 94° C. for 15 sec, 55° C. for 20 sec, and 72° C. for 30 sec. The specificity of PCR reactions was confirmed by the melting curve analysis. The glyceraldehyde-3-phosphate dehydrogenase (GAPDH) gene was used as the reference for data normalization. The fold changes in gene expression in the cells treated with individual compounds or in combinations were calculated relative to the cells treated with an equal volume of RPMI 1640 or DMSO using the ΔΔCt method (31).

[3] = tested on: AvBD9; experiment: RT-qPCR of AvBD9 in HD11 macrophages; settings: HD11 cells, 5 μM compound with 2 mM butyrate, 24 h (FIG. 6, Panel A)
Procedure: (§3) Culture and stimulation of macrophages. Two different chicken macrophage cell lines, HTC (24) and HD11 (25), were kindly provided by Dr. Narayan C. Rath and Dr. Hyun Lillehoj of USDA-ARS and maintained in RPMI 1640 containing 10% heat-inactivated FBS, 100 U/ml penicillin, and 100 μg/ml streptomycin and subcultured every 3-4 days. After overnight seeding at 1.5×10^6 cells/well in 6-well cell culture plates, cells were treated with different concentrations of each compound for 24 h or with the indicated concentration of each compound for various lengths of time for dose-response and time-course experiments, respectively. […]
(§4) Total RNA extraction and gene expression analysis. […] Gene expression was performed using reverse transcription-quantitative PCR (RT-qPCR) as previously described (27-29). […] The cDNA was then diluted 10-fold with RNase-free water prior to real-time PCR using QuantiTect SYBR® Green PCR Kit (Qiagen, Valencia, CA) in 10-μl reactions using primers specific for HDP, barrier function, and inflammatory cytokine genes as described (27, 29, 30). […] The fold changes in gene expression in the cells treated with individual compounds or in combinations were calculated relative to the cells treated with an equal volume of RPMI 1640 or DMSO using the ΔΔCt method (31).

[4] = tested on: AvBD1; experiment: RT-qPCR of AvBD1 in HD11 macrophages; settings: HD11 cells, 5 μM compound with 2 mM butyrate, 24 h (FIG. 6, Panel B)
Procedure: as §3, §4

[5] = tested on: AvBD4; experiment: RT-qPCR of AvBD4 in HD11 macrophages; settings: HD11 cells, 5 μM compound with 2 mM butyrate, 24 h (FIG. 6, Panel C)
Procedure: as §3, §4

[6] = tested on: AvBD10; experiment: RT-qPCR of AvBD10 in HD11 macrophages; settings: HD11 cells, 5 μM compound with 2 mM butyrate, 24 h (FIG. 6, Panel D)
Procedure: as §3, §4

[7] = tested on: CLDN1; experiment: RT-qPCR of CLDN1 (claudin 1) in HTC cells; settings: 24 h (FIG. 8, Panel F)
Procedure: as §1, §2

[8] = tested on: IL-1β; experiment: RT-qPCR of IL-1β in HTC cells with or without LPS
Procedure: as §1, §2

[9] = tested on: IL-8; experiment: RT-qPCR of IL-8 in HTC cells with or without LPS
Procedure: as §1, §2

## Cc1cc(Nc2ccc(NC(=O)c3ccc(Nc4ccnc5ccccc45)cc3)cc2)nc(N)n1 [SGI-1027]
[1]
  activation of the AvBD9 gene promoter (relative luciferase activity): weak activator
  synergy in luciferase activity with butyrate: no synergy
[2]; 5 μM compound alone
  induction of AvBD9 gene expression: 4 fold
[2]
  increase in AvBD9 expression, combination with mocetinostat: 747 fold
  synergy with butyrate in AvBD9 mRNA expression: concentration-dependent increase; also recorded: synergize
[2]; 10 µM compound + 2 mM butyrate versus 10 µM compound alone
  additional increase in AvBD9 of the butyrate combination over compound alone: 8 fold
[2]; 10 μM compound alone, 24 h (FIG. 2, Panel B)
  induction of AvBD9 mRNA expression: 51 fold
[2]; 10 µM compound alone, 24 h (FIG. 4, Panel C)
  AvBD9 expression augmented: 51 fold
[2]; 10 µM compound combined with 2 mM butyrate, 24 h (FIG. 4, Panel C)
  AvBD9 induction when combined with butyrate: 411 fold

## CCCc1cc(C)[nH]c(=O)c1CNC(=O)c1cc(-c2ccc(N3CCN(C(C)C)CC3)nc2)cc2c1cnn2C(C)C [UNC1999]
[1]
  activation of the AvBD9 gene promoter (relative luciferase activity): concentration-dependent activation
  synergy in luciferase activity with butyrate: marked dose-dependent increase in the synergy
[2]; 20 μM compound + 2 mM butyrate versus 20 μM compound alone
  additional increase in AvBD9 expression of the butyrate combination over compound alone: 14 fold
[2]; 20 μM compound alone, 24 h (FIG. 2, Panel B), peak
  increase in AvBD9 mRNA expression: 259 fold
[2]; 20 μM compound alone, 24 h (FIG. 4, Panels A, B)
  induction of AvBD9 expression: 324 fold
[2]; 20 μM compound in combination with 2 mM butyrate, 24 h (FIG. 4, Panels A, B)
  increase in AvBD9 expression, combination with butyrate: 4,470 fold
[2]
  synergy with butyrate in AvBD9 mRNA expression: concentration-dependent increase
  synergy in AvBD9 induction between HMTi and HDACi: marked synergy
[3]
  synergy in AvBD9 induction with butyrate: drastic synergy
[4]
  AvBD1 induction, combination with butyrate: synergistically induced, albeit at lower magnitudes
[5]
  AvBD4 induction, combination with butyrate: synergistically induced, albeit at lower magnitudes
[6]
  AvBD10 induction, combination with butyrate: synergistically induced, albeit at lower magnitudes
[7]; 5 μM UNC1999 + 2.5 μM mocetinostat
  CLDN1 induction, combination with mocetinostat: synergistically induced
[7]; 5 μM UNC1999 + 2 mM butyrate
  CLDN1 induction, combination with butyrate: synergistically induced

## Nc1ncn([C@@H]2O[C@H](CO)[C@@H](O)[C@H]2O)c(=O)n1 [AZA, 5-azacytidine]
[2]; 5 μM compound alone
  induction of AvBD9 gene expression: 3 fold
[2]
  increase in AvBD9 expression, combination with mocetinostat: 1,925 fold

## CCCC(=O)[O-].[Na+] [butyrate, Sodium butyrate]
[2]; 2 mM butyrate alone, 24 h (FIG. 4, Panel A)
  induction of AvBD9 expression: 27 fold
[8]; compound alone 24 h, then 10 ng/ml LPS 3 h (FIG. 8, Panel D)
  effect on LPS-induced IL-1β expression: suppressed
[8]; compound alone (2 mM butyrate or 5 μM BIX01294), without LPS (FIG. 8, Panel D)
  activity in inducing gene expression of IL-1β: no or weak activity
[9]; compound alone 24 h, then 10 ng/ml LPS 3 h (FIG. 8, Panel E)
  effect on LPS-induced IL-8 expression: potentiated
[9]; compound alone (2 mM butyrate or 5 μM BIX01294), without LPS (FIG. 8, Panel E)
  activity in inducing gene expression of IL-8: no or weak activity

## COc1cc2c(cc1OCCCN1CCCC1)N=C(N)C21CCC1 [A-366]
[2]
  synergy in AvBD9 induction between HMTi and HDACi: marked synergy

## Nc1ccccc1NC(=O)c1ccc(CNc2nccc(-c3cccnc3)n2)cc1 [mocetinostat]
[2]; 2.5 μM mocetinostat alone
  induction of AvBD9 gene expression: 152 fold
